Source: patent US11780893B2, “Kv1.3 blockers” (Zealand Pharma A/S, priority 2019, dated 2023)
Bridge positions count the residues as written; N and C are the ends. Square brackets hold non-standard residues; d marks the D form. Peptide text beside a SMILES is read from it. Nle = CCCC[C@H](N)C(=O)O

Tests used:
Kv1.3 = target: T1, Kv1.3 (Homo sapiens, UniProt P22001); experiment: cell-based; conditions: CHO cells, whole-cell patch clamp; read-out: Potency IC50 (nM) Kv1.3
T1 construct: expressed in transfected cells; host or cells: Chinese Hamster Ovary (CHO)
T1 sequence (P22001 whole entry): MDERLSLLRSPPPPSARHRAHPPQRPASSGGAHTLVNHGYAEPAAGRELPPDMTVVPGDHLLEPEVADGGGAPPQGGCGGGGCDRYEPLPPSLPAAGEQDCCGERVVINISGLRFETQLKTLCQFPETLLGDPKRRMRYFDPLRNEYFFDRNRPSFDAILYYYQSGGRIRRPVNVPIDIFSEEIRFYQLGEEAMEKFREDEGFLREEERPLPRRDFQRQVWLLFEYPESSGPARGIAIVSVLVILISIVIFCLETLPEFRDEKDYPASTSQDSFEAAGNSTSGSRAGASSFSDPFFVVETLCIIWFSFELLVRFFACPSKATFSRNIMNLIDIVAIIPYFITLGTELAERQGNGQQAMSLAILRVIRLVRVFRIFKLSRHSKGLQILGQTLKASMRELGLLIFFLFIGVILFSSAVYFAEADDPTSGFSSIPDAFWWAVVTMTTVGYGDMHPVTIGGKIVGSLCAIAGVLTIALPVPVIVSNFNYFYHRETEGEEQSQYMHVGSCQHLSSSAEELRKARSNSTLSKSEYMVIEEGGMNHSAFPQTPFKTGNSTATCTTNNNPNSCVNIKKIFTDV

[1] = target: T2, human Kv1.3 voltage-gated K+ channel (Homo sapiens, UniProt P22001); experiment: cell-based; conditions: inhibition of thallium flux, CHO-DUKX cells with human Kv1.3; read-out: IC50
T2 construct: host or cells: CHO-DUKX
T2 sequence (P22001 whole entry): as above

Kv1.1 = target: T3, Kv1.1 (Homo sapiens, UniProt Q09470); experiment: cell-based; conditions: for IC50: CHO cells, whole-cell patch clamp, read-out: Potency IC50 (nM) Kv1.1; for Selectivity Kv1.1/Kv1.3: ratio IC50[Kv1.1]/IC50[Kv1.3]
T3 construct: expressed in transfected cells; host or cells: Chinese Hamster Ovary (CHO)
T3 sequence (Q09470 whole entry): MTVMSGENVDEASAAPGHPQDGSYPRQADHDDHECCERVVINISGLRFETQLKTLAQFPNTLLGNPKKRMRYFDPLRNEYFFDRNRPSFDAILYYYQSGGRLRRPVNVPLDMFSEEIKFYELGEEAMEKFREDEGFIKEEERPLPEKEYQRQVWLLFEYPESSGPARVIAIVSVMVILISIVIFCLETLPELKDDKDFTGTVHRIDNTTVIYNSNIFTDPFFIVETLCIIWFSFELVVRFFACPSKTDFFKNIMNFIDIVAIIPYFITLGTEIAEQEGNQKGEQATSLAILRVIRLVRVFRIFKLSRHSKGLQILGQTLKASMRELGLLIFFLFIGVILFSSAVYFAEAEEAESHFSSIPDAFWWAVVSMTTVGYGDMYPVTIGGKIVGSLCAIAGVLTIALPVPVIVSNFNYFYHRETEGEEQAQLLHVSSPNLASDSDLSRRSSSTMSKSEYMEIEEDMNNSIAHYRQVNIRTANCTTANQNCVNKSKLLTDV

Rat whole blood = Rat whole blood (Rattus norvegicus, UniProt P15384)
Chain of Rat whole blood (P15384 whole entry): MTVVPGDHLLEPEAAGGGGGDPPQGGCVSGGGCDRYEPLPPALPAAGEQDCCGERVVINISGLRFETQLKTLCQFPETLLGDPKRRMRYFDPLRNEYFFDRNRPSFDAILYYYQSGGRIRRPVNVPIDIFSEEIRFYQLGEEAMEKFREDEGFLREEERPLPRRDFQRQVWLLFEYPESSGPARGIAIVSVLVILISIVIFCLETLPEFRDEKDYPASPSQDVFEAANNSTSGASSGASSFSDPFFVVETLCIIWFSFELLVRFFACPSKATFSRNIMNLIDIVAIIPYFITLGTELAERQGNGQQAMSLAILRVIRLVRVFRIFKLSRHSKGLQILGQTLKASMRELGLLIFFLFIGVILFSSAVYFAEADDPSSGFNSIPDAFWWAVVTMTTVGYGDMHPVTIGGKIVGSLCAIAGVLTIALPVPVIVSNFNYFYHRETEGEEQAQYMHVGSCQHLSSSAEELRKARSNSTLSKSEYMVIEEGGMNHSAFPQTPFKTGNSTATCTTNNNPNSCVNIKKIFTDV

Kv1.6 = target: T4, Kv1.6 (Homo sapiens, UniProt P17658); experiment: cell-based; conditions: for IC50: CHO cells, whole-cell patch clamp, read-out: Potency IC50 (nM) Kv1.6; for Selectivity Kv1.6/Kv1.3: ratio IC50[Kv1.6]/IC50[Kv1.3]
T4 construct: expressed in transfected cells; host or cells: Chinese Hamster Ovary (CHO)
T4 sequence (P17658 whole entry): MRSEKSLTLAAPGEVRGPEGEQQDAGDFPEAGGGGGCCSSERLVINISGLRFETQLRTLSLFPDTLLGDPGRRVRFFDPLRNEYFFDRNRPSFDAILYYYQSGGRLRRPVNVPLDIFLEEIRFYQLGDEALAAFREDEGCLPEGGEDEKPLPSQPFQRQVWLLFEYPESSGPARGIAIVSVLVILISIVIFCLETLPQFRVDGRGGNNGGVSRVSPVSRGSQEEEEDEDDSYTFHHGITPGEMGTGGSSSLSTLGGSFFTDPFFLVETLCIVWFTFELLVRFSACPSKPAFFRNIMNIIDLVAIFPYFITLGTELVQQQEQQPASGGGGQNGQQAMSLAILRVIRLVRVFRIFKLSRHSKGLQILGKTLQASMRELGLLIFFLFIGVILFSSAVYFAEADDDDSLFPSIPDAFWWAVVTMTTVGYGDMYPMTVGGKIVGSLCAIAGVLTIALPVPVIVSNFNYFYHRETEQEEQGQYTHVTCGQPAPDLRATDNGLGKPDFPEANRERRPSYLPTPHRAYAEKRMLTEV

Kv1.2 = target: T5, Kv1.2 (Homo sapiens, UniProt P16389); experiment: cell-based; conditions: for IC50: CHO cells, whole-cell patch clamp, read-out: Potency IC50 (nM) Kv1.2
T5 construct: expressed in transfected cells; host or cells: Chinese Hamster Ovary (CHO)
T5 sequence (P16389 whole entry): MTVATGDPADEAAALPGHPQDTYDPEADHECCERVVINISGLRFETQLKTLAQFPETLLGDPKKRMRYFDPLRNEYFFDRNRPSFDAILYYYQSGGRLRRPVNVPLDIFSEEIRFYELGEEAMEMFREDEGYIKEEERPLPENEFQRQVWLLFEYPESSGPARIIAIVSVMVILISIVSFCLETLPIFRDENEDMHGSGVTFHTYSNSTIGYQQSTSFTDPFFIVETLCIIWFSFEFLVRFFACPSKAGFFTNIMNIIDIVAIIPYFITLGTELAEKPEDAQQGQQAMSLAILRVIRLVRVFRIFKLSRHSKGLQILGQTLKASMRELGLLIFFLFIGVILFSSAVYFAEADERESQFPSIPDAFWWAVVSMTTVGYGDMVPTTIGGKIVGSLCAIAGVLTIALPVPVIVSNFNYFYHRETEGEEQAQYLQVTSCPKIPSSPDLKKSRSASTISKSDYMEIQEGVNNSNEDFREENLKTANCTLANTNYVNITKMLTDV

SMILES	IC50 (Kv1.3) [nM]	IC50 [1] [nM]	IC50 (Kv1.1) [nM]	Selectivity Kv1.1/Kv1.3 (Kv1.1)	IC50 (Rat whole blood) [nM]	IC50 (Kv1.6) [nM]	IC50 (Kv1.2) [nM]	Selectivity Kv1.6/Kv1.3 (Kv1.6)	Selectivity Kv1.2/Kv1.3 (Kv1.2; ratio IC50[Kv1.2]/IC50[Kv1.3])
CC[C@H](C)[C@@H]1NC(=O)[C@H](C)NC(=O)[C@H](CCCCN)NC(=O)[C@H](CC(C)C)NC(=O)[C@@H]2CSSC[C@@H](C(=O)N[C@@H](Cc3ccc(O)cc3)C(=O)N3CCC[C@H]3C(=O)N[C@@H](CCCNC(=N)N)C(N)=O)NC(=O)[C@H](CCCCN)NC(=O)[C@@H]3CSSC[C@H](NC(=O)[C@H](CCC(=O)O)NC(=O)[C@H](CCCNC(=N)N)NC(=O)[C@H](CO)NC(=O)[C@H](C)NC(=O)[C@H](CO)NC(=O)[C@@H](NC(=O)[C@H](CCCNC(=N)N)NC(=O)[C@H](CCSC)NC(=O)[C@H](CC(=O)O)NC(=O)[C@H](CCSC)NC(=O)[C@@H](N)CC(N)=O)CSSC[C@H](NC(=O)[C@H](CCCCN)NC(=O)CNC(=O)[C@H](Cc4ccccc4)NC(=O)[C@H]([C@@H](C)CC)NC(=O)[C@H](CO)NC(=O)CNC1=O)C(=O)N[C@@H](CCSC)C(=O)N[C@@H](CC(N)=O)C(=O)N[C@@H](CCCCN)C(=O)N[C@@H](CCCCN)C(=O)N3)C(=O)N[C@@H](CCCCN)C(=O)N[C@@H](CCC(N)=O)C(=O)N[C@@H](CCCCN)C(=O)N2 [Compound 27] (H-NMDMRCSASRECKQKCLKAIGSIFGKCMNKKCKCYPR-NH2; disulfide 6-27, 12-32, 16-34)	0.12	0.065	> 3000	>25900	≤ 1	206	11		
CCCC[C@H](NC(=O)[C@@H](N)CO)C(=O)N[C@@H](CC(=O)O)C(=O)N[C@@H](CCC(=O)O)C(=O)N[C@@H](CCCNC(=N)N)C(=O)N[C@H]1CSSC[C@@H]2NC(=O)[C@H](CCCCN)NC(=O)CNC(=O)[C@H](Cc3ccccc3)NC(=O)[C@H]([C@@H](C)CC)NC(=O)[C@H](CO)NC(=O)CNC(=O)[C@H]([C@@H](C)CC)NC(=O)[C@H](C)NC(=O)[C@H](CCCCN)NC(=O)[C@H](CC(C)C)NC(=O)[C@@H]3CSSC[C@@H](C(=O)N[C@@H](Cc4ccc(O)cc4)C(=O)N4CCC[C@H]4C(=O)N[C@@H](CCCNC(=N)N)C(N)=O)NC(=O)[C@H](CCCCN)NC(=O)[C@H](CSSC[C@H](NC(=O)[C@H](CCC(=O)O)NC(=O)[C@H](C(C)C)NC(=O)[C@H](CO)NC(=O)[C@H](C)NC(=O)[C@H](CO)NC1=O)C(=O)N[C@@H](CCCCN)C(=O)N[C@@H](CCC(N)=O)C(=O)N[C@@H](CCCCN)C(=O)N3)NC(=O)[C@H](CCCCN)NC(=O)[C@H](CCCCN)NC(=O)[C@H](CC(N)=O)NC(=O)[C@H](CCSC)NC2=O [Compound 76] (H-S[Nle]DERCSASVECKQKCLKAIGSIFGKCMNKKCKCYPR-NH2; disulfide 6-27, 12-32, 16-34)	0.28	0.093	> 3000	>10600	≤ 1	> 3000	122	>10600	
CCCC[C@@H]1NC(=O)[C@@H]2CSSC[C@H](NC(=O)[C@H](CCCNC(=N)N)NC(=O)[C@H](CCCC)NC(=O)[C@H](CC(=O)O)NC(=O)[C@H](CCCC)NC(=O)[C@@H](N)CC(N)=O)C(=O)N[C@@H](CO)C(=O)N[C@@H](C)C(=O)N[C@@H](CO)C(=O)N[C@@H](CCCCN)C(=O)N[C@@H](CCC(=O)O)C(=O)N[C@H]3CSSC[C@H](NC(=O)[C@H](CCCCN)NC(=O)[C@H](CCCCN)NC(=O)[C@H](CC(N)=O)NC1=O)C(=O)N[C@@H](CCCCN)C(=O)N[C@H](C(=O)N[C@@H](Cc1ccc(O)cc1)C(=O)N1CCC[C@H]1C(=O)N[C@@H](CCCNC(=N)N)C(N)=O)CSSC[C@H](NC(=O)[C@H](CCCCN)NC(=O)[C@H](CCC(N)=O)NC(=O)[C@H](CCCCN)NC3=O)C(=O)N[C@@H](CC(C)C)C(=O)N[C@@H](CCCCN)C(=O)N[C@@H](C)C(=O)N[C@@H]([C@@H](C)CC)C(=O)NCC(=O)N[C@@H](CO)C(=O)N[C@@H]([C@@H](C)CC)C(=O)N[C@@H](Cc1ccccc1)C(=O)NCC(=O)N[C@@H](CCCCN)C(=O)N2 [Compound 63] (H-N[Nle]D[Nle]RCSASKECKQKCLKAIGSIFGKC[Nle]NKKCKCYPR-NH2; disulfide 6-27, 12-32, 16-34)	0.31	0.13	> 3000	>9600	≤ 1	1230	184		
CCCC[C@H](NC(=O)[C@@H]1CCCN1)C(=O)N[C@@H](CC(=O)O)C(=O)N[C@@H](CCCC)C(=O)N[C@@H](CCCNC(=N)N)C(=O)N[C@H]1CSSC[C@@H]2NC(=O)[C@H](CCCCN)NC(=O)CNC(=O)[C@H](Cc3ccccc3)NC(=O)[C@H]([C@@H](C)CC)NC(=O)[C@@H]3CSSC[C@@H](C(N)=O)NC(=O)[C@@H]4CCCN4C(=O)[C@H](Cc4ccc(O)cc4)NC(=O)[C@@H]4CSSC[C@H](NC(=O)[C@H](CCCCN)NC(=O)[C@H](CCC(N)=O)NC(=O)[C@H](CCCCN)NC(=O)[C@H](CSSC[C@H](NC(=O)[C@H](CCCCN)NC(=O)[C@H](CCCCN)NC(=O)[C@H](CC(N)=O)NC(=O)[C@H](CCCC)NC2=O)C(=O)N[C@@H](CCCCN)C(=O)N4)NC(=O)[C@H](CCC(=O)O)NC(=O)[C@H](C(C)C)NC(=O)[C@H](CO)NC(=O)[C@H](C)NC(=O)[C@H](CO)NC1=O)C(=O)N[C@@H](CC(C)C)C(=O)N[C@@H](CCCCN)C(=O)N[C@@H](C)C(=O)N[C@@H]([C@@H](C)CC)C(=O)NCC(=O)N3 [Compound 83] (H-P[Nle]D[Nle]RCSASVECKQKCLKAIGCIFGKC[Nle]NKKCKCYPC-NH2; disulfide 6-27, 12-32, 16-34, 22-37)	0.63	0.12	> 3000	>4800	≤ 1	1220	624	1949	995
CCCC[C@@H]1NC(=O)[C@@H]2CSSC[C@H](NC(C)=O)C(=O)N[C@@H](CO)C(=O)N[C@@H](C)C(=O)N[C@@H](CO)C(=O)N[C@@H](C(C)C)C(=O)N[C@@H](CCC(=O)O)C(=O)N[C@H]3CSSC[C@H](NC(=O)[C@H](CCCCN)NC(=O)[C@H](CCCCN)NC(=O)[C@H](CC(N)=O)NC1=O)C(=O)N[C@@H](CCCCN)C(=O)N[C@H](C(=O)N[C@@H](Cc1ccc(O)cc1)C(=O)N1CCC[C@H]1C(=O)N[C@@H](CCCNC(=N)N)C(N)=O)CSSC[C@H](NC(=O)[C@H](CCCCN)NC(=O)[C@H](CCC(N)=O)NC(=O)[C@H](CCCCN)NC3=O)C(=O)N[C@@H](CC(C)C)C(=O)N[C@@H](CCCCN)C(=O)N[C@@H](C)C(=O)N[C@@H]([C@@H](C)CC)C(=O)NCC(=O)N[C@@H](CO)C(=O)N[C@@H]([C@@H](C)CC)C(=O)N[C@@H](Cc1ccccc1)C(=O)NCC(=O)N[C@@H](CCCCN)C(=O)N2 [Compound 105] (Ac-CSASVECKQKCLKAIGSIFGKC[Nle]NKKCKCYPR-NH2; disulfide 1-22, 7-27, 11-29)	0.24	0.16	> 3000	>12400	≤ 1	> 3000	384	>12400	
CC[C@H](C)[C@@H]1NC(=O)[C@H](C)NC(=O)[C@H](CCCCN)NC(=O)[C@H](CCCCN)NC(=O)[C@@H]2CSSC[C@@H](C(=O)N[C@@H](Cc3ccc(O)cc3)C(=O)N3CCC[C@H]3C(=O)N[C@@H](CCCNC(=N)N)C(N)=O)NC(=O)[C@H](CCCCN)NC(=O)[C@@H]3CSSC[C@H](NC(=O)[C@H](CCC(=O)O)NC(=O)[C@H](C(C)C)NC(=O)[C@H](CO)NC(=O)[C@H](C)NC(=O)[C@H](CO)NC(=O)[C@@H](NC(=O)[C@H](CCCNC(=N)N)NC(=O)[C@H](CCSC)NC(=O)[C@H](CC(=O)O)NC(=O)[C@H](CCSC)NC(=O)[C@@H](N)CC(N)=O)CSSC[C@H](NC(=O)[C@H](CCCCN)NC(=O)CNC(=O)[C@H](Cc4ccccc4)NC(=O)[C@H]([C@@H](C)CC)NC(=O)[C@H](CO)NC(=O)CNC1=O)C(=O)N[C@@H](CCSC)C(=O)N[C@@H](CC(N)=O)C(=O)N[C@@H](CCCCN)C(=O)N[C@@H](CCCCN)C(=O)N3)C(=O)N[C@@H](CCCCN)C(=O)N[C@@H](CCC(N)=O)C(=O)N[C@@H](CCCCN)C(=O)N2 [Compound 19] (H-NMDMRCSASVECKQKCKKAIGSIFGKCMNKKCKCYPR-NH2; disulfide 6-27, 12-32, 16-34)	0.22	0.12	> 3000	>13500	≤ 1	435	45		
CCCC[C@@H]1NC(=O)[C@@H]2CSSC[C@H](NC(=O)[C@H](CCCNC(=N)N)NC(=O)[C@H](CCCC)NC(=O)[C@H](CO)NC(=O)[C@H](CCCC)NC(=O)[C@@H](N)CC(N)=O)C(=O)N[C@@H](CO)C(=O)N[C@@H](C)C(=O)N[C@@H](CO)C(=O)N[C@@H](C(C)C)C(=O)N[C@@H](CCC(=O)O)C(=O)N[C@H]3CSSC[C@H](NC(=O)[C@H](CCCCN)NC(=O)[C@H](CCCCN)NC(=O)[C@H](CC(N)=O)NC1=O)C(=O)N[C@@H](CCCCN)C(=O)N[C@H](C(=O)N[C@@H](Cc1ccc(O)cc1)C(=O)N1CCC[C@H]1C(=O)N[C@@H](CCCNC(=N)N)C(N)=O)CSSC[C@H](NC(=O)[C@H](CCCCN)NC(=O)[C@H](CCC(N)=O)NC(=O)[C@H](CCCCN)NC3=O)C(=O)N[C@@H](CC(C)C)C(=O)N[C@@H](CCCCN)C(=O)N[C@@H](C)C(=O)N[C@@H]([C@@H](C)CC)C(=O)NCC(=O)N[C@@H](CO)C(=O)N[C@@H]([C@@H](C)CC)C(=O)N[C@@H](Cc1ccccc1)C(=O)NCC(=O)N[C@@H](CCCCN)C(=O)N2 [Compound 46] (H-N[Nle]S[Nle]RCSASVECKQKCLKAIGSIFGKC[Nle]NKKCKCYPR-NH2; disulfide 6-27, 12-32, 16-34)	0.32	0.11	> 3000	>9400	≤ 1	1390	302		
